Assay results reported in patent US10294202B2, “Pyrrolidinones as herbicides” (FMC Corporation, priority 2013, dated 2019).

Key:
bluegrass = experiment: Test D pre-/postemergence herbicide test; format: in vivo, Poa annua; conditions: for Plant response rating: Bluegrass, scale 0 to 100; for Plant response rating, Bluegrass: scale 0 to 100 (0 no effect, 100 complete control)
How it was run: (§1)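 Visual 0–100 ratings (0 = no effect, 100 = complete control) versus controls, made 7 to 21 days after treatment in a controlled growth environment. Test chemicals in surfactant-containing non-phytotoxic solvent were applied preemergence to silt loam-sown seeds and postemergence to plants 2–18 cm tall.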

field poppy = experiment: Test D pre-/postemergence herbicide test; format: in vivo, Papaver rhoeas; conditions: for Plant response rating: Field Poppy, scale 0 to 100; for Plant response rating, Field Poppy: scale 0 to 100 (0 no effect, 100 complete control)
How it was run: as §1

ryegrass, Italian = experiment: Test D pre-/postemergence herbicide test; format: in vivo, Lolium multiflorum; conditions: for Plant response rating: Postemergence, Ryegrass, Italian, scale 0 to 100; for Plant response rating, Ryegrass, Italian: Preemergence, scale 0 to 100 (0 no effect, 100 complete control)
How it was run: as §1

bermudagrass = experiment: Test C pre-/postemergence herbicide test; format: in vivo, Cynodon dactylon
How it was run: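 Two application timings ran in parallel with identically formulated test chemicals (non-phytotoxic solvent, surfactant included): spray on seeded loam–sand soil, and spray on emerged plants 2 to 18 cm high. Evaluation at 13 to 15 days compared each species with controls, rated from 0 up to 100.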

blackgrass = experiment: Test D pre-/postemergence herbicide test; format: in vivo, Alopecurus myosuroides; conditions: for Plant response rating: Blackgrass, scale 0 to 100; for Plant response rating, Blackgrass: scale 0 to 100 (0 no effect, 100 complete control)
How it was run: as §1

speedwell = experiment: Test D pre-/postemergence herbicide test; format: in vivo, Veronica persica; conditions: for Plant response rating: Postemergence, Speedwell, scale 0 to 100; for Plant response rating, Speedwell: Preemergence, scale 0 to 100 (0 no effect, 100 complete control)
How it was run: as §1

[1] = Postemergence, 31 g ai/ha, scale 0 (no effect) to 100 (complete control)
[2] = Postemergence, 62 g ai/ha, scale 0 to 100 (0 no effect, 100 complete control)
[3] = Postemergence, 125 g ai/ha, scale 0 to 100 (0 no effect, 100 complete control)
[4] = Postemergence, 250 g ai/ha, scale 0 to 100 (0 no effect, 100 complete control)
[5] = Preemergence, 62 g ai/ha, scale 0 to 100
[6] = Preemergence, 125 g ai/ha, scale 0 to 100 (0 no effect, 100 complete control)
[7] = Preemergence, 31 g ai/ha, scale 0 to 100 (0 no effect, 100 complete control)
[8] = Preemergence, 250 g ai/ha, scale 0 to 100 (0 no effect, 100 complete control)

O=C1NCC(c2ccc(F)c(F)c2)C1C(=O)Nc1cccc(F)c1F (centres unmarked) [Compound 17, N-(2,3-difluorophenyl)-4-(3,4-difluorophenyl)-2-oxo-3-pyrrolidinecarboxamide]
Plant response rating (bluegrass; Postemergence, 16 g ai/ha): 0 | Plant response rating (bluegrass; Postemergence, 31 g ai/ha): 0 | Plant response rating (bluegrass; Postemergence, 62 g ai/ha): 0 | Plant response rating (bluegrass; Postemergence, 125 g ai/ha): 0 | Plant response rating (bluegrass; Postemergence, 250 g ai/ha): 0 | Plant response rating (field poppy; Postemergence, 16 g ai/ha): 0 | Plant response rating (field poppy; Postemergence, 31 g ai/ha): 0 | Plant response rating (field poppy; Postemergence, 62 g ai/ha): 0 | Plant response rating (field poppy; Postemergence, 125 g ai/ha): 0 | Plant response rating (field poppy; Postemergence, 250 g ai/ha): 0 | Plant response rating (ryegrass, Italian; 16 g ai/ha): 0 | Plant response rating (ryegrass, Italian; 31 g ai/ha): 0 | Plant response rating (ryegrass, Italian; 62 g ai/ha): 0 | Plant response rating (ryegrass, Italian; 125 g ai/ha): 0 | Plant response rating (ryegrass, Italian; 250 g ai/ha): 0 | Plant response rating, Bermudagrass (bermudagrass; [1]): 0 | Plant response rating, Bermudagrass (bermudagrass; [2]): 0 | Plant response rating, Bermudagrass (bermudagrass; [3]): 0 | Plant response rating, Bermudagrass (bermudagrass; [4]): 0 | Plant response rating, Bermudagrass (bermudagrass; [5]): 45 | Plant response rating, Bermudagrass (bermudagrass; [6]): 85 | Bermudagrass plant response rating (bermudagrass; [7]): 0 | Plant response rating, Bermudagrass (bermudagrass; [8]): 90 | Plant response rating (blackgrass; Postemergence, 16 g ai/ha): 0 | Plant response rating (blackgrass; Postemergence, 31 g ai/ha): 0 | Plant response rating (blackgrass; Postemergence, 62 g ai/ha): 0 | Plant response rating (blackgrass; Postemergence, 125 g ai/ha): 0 | Plant response rating (blackgrass; Postemergence, 250 g ai/ha): 0 | Plant response rating (speedwell; 16 g ai/ha): 0 | Plant response rating (speedwell; 31 g ai/ha): 0 | Plant response rating (speedwell; 62 g ai/ha): 0 | Plant response rating (speedwell; 125 g ai/ha): 0 | Plant response rating (speedwell; 250 g ai/ha): 0

O=C1NCC(c2cc(F)c(F)cc2F)C1C(=O)Nc1cccc(F)c1F (centres unmarked) [Compound 50]
Plant response rating (bluegrass; Postemergence, 16 g ai/ha): 0 | Plant response rating (bluegrass; Postemergence, 31 g ai/ha): 0 | Plant response rating (bluegrass; Postemergence, 62 g ai/ha): 0 | Plant response rating (bluegrass; Postemergence, 125 g ai/ha): 0 | Plant response rating, Bluegrass (bluegrass; Preemergence, 62 g ai/ha): 0 | Plant response rating, Bluegrass (bluegrass; Preemergence, 16 g ai/ha): 0 | Plant response rating, Bluegrass (bluegrass; Preemergence, 31 g ai/ha): 0 | Plant response rating (bluegrass; Preemergence, 125 g ai/ha): 0 | Plant response rating (field poppy; Postemergence, 16 g ai/ha): 0 | Plant response rating (field poppy; Postemergence, 31 g ai/ha): 0 | Plant response rating (field poppy; Postemergence, 62 g ai/ha): 0 | Plant response rating (field poppy; Postemergence, 125 g ai/ha): 0 | Plant response rating, Field Poppy (field poppy; Preemergence, 62 g ai/ha): 0 | Plant response rating, Field Poppy (field poppy; Preemergence, 16 g ai/ha): 0 | Plant response rating, Field Poppy (field poppy; Preemergence, 31 g ai/ha): 50 | Plant response rating (field poppy; Preemergence, 125 g ai/ha): 65 | Plant response rating (ryegrass, Italian; 16 g ai/ha): 0 | Plant response rating (ryegrass, Italian; 31 g ai/ha): 0 | Plant response rating (ryegrass, Italian; 62 g ai/ha): 0 | Plant response rating (ryegrass, Italian; 125 g ai/ha): 0 | Plant response rating, Ryegrass, Italian (ryegrass, Italian; 62 g ai/ha): 0 | Plant response rating, Ryegrass, Italian (ryegrass, Italian; 125 g ai/ha): 0 | Plant response rating, Ryegrass, Italian (ryegrass, Italian; 16 g ai/ha): 0 | Plant response rating, Ryegrass, Italian (ryegrass, Italian; 31 g ai/ha): 0 | Plant response rating, Bermudagrass (bermudagrass; [1]): 0 | Plant response rating, Bermudagrass (bermudagrass; [2]): 0 | Plant response rating, Bermudagrass (bermudagrass; [3]): 0 | Plant response rating, Bermudagrass (bermudagrass; [4]): 0 | Plant response rating (blackgrass; Postemergence, 16 g ai/ha): 0 | Plant response rating (blackgrass; Postemergence, 31 g ai/ha): 0 | Plant response rating (blackgrass; Postemergence, 62 g ai/ha): 0 | Plant response rating (blackgrass; Postemergence, 125 g ai/ha): 0 | Plant response rating, Blackgrass (blackgrass; Preemergence, 62 g ai/ha): 0 | Plant response rating, Blackgrass (blackgrass; Preemergence, 16 g ai/ha): 0 | Plant response rating, Blackgrass (blackgrass; Preemergence, 31 g ai/ha): 0 | Plant response rating (blackgrass; Preemergence, 125 g ai/ha): 0 | Plant response rating (speedwell; 16 g ai/ha): 0 | Plant response rating, Speedwell (speedwell; 62 g ai/ha): 0 | Plant response rating, Speedwell (speedwell; 125 g ai/ha): 0 | Plant response rating, Speedwell (speedwell; 16 g ai/ha): 0 | Plant response rating, Speedwell (speedwell; 31 g ai/ha): 0

O=C1NCC(c2ccc(Cl)c(F)c2)C1C(=O)Nc1cccc(F)c1F (centres unmarked) [Compound 52]
Plant response rating (bluegrass; Postemergence, 16 g ai/ha): 0 | Plant response rating (bluegrass; Postemergence, 31 g ai/ha): 0 | Plant response rating (bluegrass; Postemergence, 62 g ai/ha): 0 | Plant response rating (bluegrass; Postemergence, 125 g ai/ha): 0 | Plant response rating (bluegrass; Postemergence, 250 g ai/ha): 0 | Plant response rating, Bluegrass (bluegrass; Preemergence, 62 g ai/ha): 0 | Plant response rating, Bluegrass (bluegrass; Preemergence, 16 g ai/ha): 0 | Plant response rating, Bluegrass (bluegrass; Preemergence, 31 g ai/ha): 0 | Plant response rating (bluegrass; Preemergence, 125 g ai/ha): 0 | Plant response rating (bluegrass; Preemergence, 250 g ai/ha): 20 | Plant response rating (field poppy; Postemergence, 16 g ai/ha): 0 | Plant response rating (field poppy; Postemergence, 31 g ai/ha): 0 | Plant response rating (field poppy; Postemergence, 62 g ai/ha): 0 | Plant response rating (field poppy; Postemergence, 125 g ai/ha): 0 | Plant response rating (field poppy; Postemergence, 250 g ai/ha): 0 | Plant response rating, Field Poppy (field poppy; Preemergence, 62 g ai/ha): 50 | Plant response rating, Field Poppy (field poppy; Preemergence, 16 g ai/ha): 30 | Plant response rating, Field Poppy (field poppy; Preemergence, 31 g ai/ha): 50 | Plant response rating (field poppy; Preemergence, 250 g ai/ha): 80 | Plant response rating (ryegrass, Italian; 16 g ai/ha): 0 | Plant response rating (ryegrass, Italian; 31 g ai/ha): 0 | Plant response rating (ryegrass, Italian; 62 g ai/ha): 0 | Plant response rating (ryegrass, Italian; 125 g ai/ha): 0 | Plant response rating (ryegrass, Italian; 250 g ai/ha): 0 | Plant response rating, Ryegrass, Italian (ryegrass, Italian; 62 g ai/ha): 0 | Plant response rating, Ryegrass, Italian (ryegrass, Italian; 125 g ai/ha): 0 | Plant response rating, Ryegrass, Italian (ryegrass, Italian; 16 g ai/ha): 40 | Plant response rating, Ryegrass, Italian (ryegrass, Italian; 31 g ai/ha): 0 | Plant response rating, Ryegrass, Italian (ryegrass, Italian; 250 g ai/ha): 0 | Plant response rating, Bermudagrass (bermudagrass; [1]): 0 | Plant response rating, Bermudagrass (bermudagrass; [2]): 0 | Plant response rating, Bermudagrass (bermudagrass; [3]): 0 | Plant response rating, Bermudagrass (bermudagrass; [4]): 10 | Plant response rating, Bermudagrass (bermudagrass; [5]): 40 | Plant response rating, Bermudagrass (bermudagrass; [6]): 40 | Bermudagrass plant response rating (bermudagrass; [7]): 0 | Plant response rating, Bermudagrass (bermudagrass; [8]): 65 | Plant response rating (blackgrass; Postemergence, 16 g ai/ha): 0 | Plant response rating (blackgrass; Postemergence, 31 g ai/ha): 0 | Plant response rating (blackgrass; Postemergence, 62 g ai/ha): 0 | Plant response rating (blackgrass; Postemergence, 125 g ai/ha): 0 | Plant response rating (blackgrass; Postemergence, 250 g ai/ha): 0 | Plant response rating, Blackgrass (blackgrass; Preemergence, 62 g ai/ha): 0 | Plant response rating, Blackgrass (blackgrass; Preemergence, 16 g ai/ha): 0 | Plant response rating, Blackgrass (blackgrass; Preemergence, 31 g ai/ha): 0 | Plant response rating (blackgrass; Preemergence, 125 g ai/ha): 0 | Plant response rating (blackgrass; Preemergence, 250 g ai/ha): 0 | Plant response rating (speedwell; 16 g ai/ha): 20 | Plant response rating (speedwell; 31 g ai/ha): 20 | Plant response rating (speedwell; 62 g ai/ha): 25 | Plant response rating (speedwell; 125 g ai/ha): 40 | Plant response rating (speedwell; 250 g ai/ha): 70 | Plant response rating, Speedwell (speedwell; 62 g ai/ha): 90 | Plant response rating, Speedwell (speedwell; 125 g ai/ha): 100 | Plant response rating, Speedwell (speedwell; 16 g ai/ha): 0 | Plant response rating, Speedwell (speedwell; 31 g ai/ha): 90 | Plant response rating, Speedwell (speedwell; 250 g ai/ha): 100
